Test results as given in ChEMBL document CHEMBL1201862, “PubChem BioAssay data set” (2004).
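Compound exposure: 48 hours, 5 concentrations, 96-well plates. At the GI50, growth is halved.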 Activity calls are given as the source filed them. Rule as the data show it: active = GI50 up to about 1.1 µM and inactive = higher.

Columns and labels:
Test in all cases: NCI-60 cell line screen, 48 h
[1] = system: UACC-62
[2] = system: DU-145
[3] = system: NCI-H460
[4] = system: KM12
[5] = system: OVCAR-4
[6] = system: SNB-75
[7] = system: UACC-257
[8] = system: HCT-116
[9] = system: NCI/ADR-RES
[10] = system: U-251
[11] = system: RPMI-8226
[12] = system: EKVX
[13] = system: SK-OV-3
[14] = system: NCI-H23
[15] = system: CCRF-CEM
[16] = system: HL-60
[17] = system: MDA-MB-435
[18] = system: SK-MEL-2
[19] = system: HCC 2998
[20] = system: A498

Measured: GI50

Cc1ccnn1CCc1ccc(Cl)cc1Cl
inactive: [1] 8.73 µM | [2] 37.4 µM | [3] 27.2 µM | [4] 27 µM | [5] 11.7 µM | [6] 14.5 µM | [7] 34.4 µM | [8] 47.5 µM | [9] 6.82 µM | [10] 29.1 µM | [11] 8.73 µM | [12] 2.31 µM | [13] 65.9 µM | [14] 24.8 µM | [15] 25.4 µM | [16] 7.69 µM | [17] 38.2 µM

N#Cc1c(-c2ccc([N+](=O)[O-])cc2)c(C#N)c(=O)n(NS(=O)(=O)c2ccccc2)c1O
inactive: [1] > 100 µM | [3] > 100 µM | [18] > 100 µM | [5] > 100 µM | [7] > 100 µM | [8] > 100 µM | [9] > 100 µM | [10] > 100 µM | [11] > 100 µM | [12] > 100 µM | [19] > 100 µM | [20] > 100 µM | [13] > 100 µM | [15] > 100 µM | [16] > 100 µM | [17] > 100 µM

O=C(CC1Sc2ccccc2NC1=O)Nc1ccc(Cl)cc1 (centres undefined)
inactive: [1] 23.9 µM | [3] > 100 µM | [18] > 100 µM | [4] > 100 µM | [5] 18.2 µM | [6] 13.1 µM | [7] > 100 µM | [8] 42.9 µM | [10] > 100 µM | [11] > 100 µM | [12] > 100 µM | [19] 72.1 µM | [20] > 100 µM | [13] > 100 µM | [14] 46.2 µM | [15] > 100 µM | [16] > 100 µM

COc1cccc(-c2nc(-c3cnccn3)n(Cc3ccccc3)n2)c1
inactive: [1] 91.4 µM | [2] > 100 µM | [3] > 100 µM | [4] > 100 µM | [5] 21.6 µM | [6] 24.4 µM | [7] > 100 µM | [8] > 100 µM | [10] > 100 µM | [11] > 100 µM | [12] > 100 µM | [19] > 100 µM | [13] 75.9 µM | [14] > 100 µM | [15] > 100 µM | [16] > 100 µM | [17] > 100 µM

COc1cc(OC2OC(CO)C(O)C(O)C2O)c2c(O)c3c(=O)cc(C)oc3cc2c1 (centres undefined)
inactive: [1] > 100 µM | [2] > 100 µM | [3] > 100 µM | [18] > 100 µM | [4] > 100 µM | [5] > 100 µM | [6] > 100 µM | [7] > 100 µM | [8] > 100 µM | [10] > 100 µM | [11] > 100 µM | [12] > 100 µM | [19] > 100 µM | [20] > 100 µM | [13] > 100 µM | [14] > 100 µM | [15] > 100 µM | [16] > 100 µM | [17] > 100 µM

O=C1C(N2CCNCC2)=C(Cl)C(=O)c2ncccc21
inactive: [1] > 10 µM | [2] 6.79 µM | [3] > 10 µM | [18] > 10 µM | [4] > 10 µM | [5] > 10 µM | [6] > 10 µM | [7] > 10 µM | [8] 1.86 µM | [10] > 10 µM | [11] 3.37 µM | [12] > 10 µM | [19] > 10 µM | [13] > 10 µM | [14] > 10 µM | [15] 8.59 µM | [17] 4.6 µM

CCn1c(=O)c(C(=O)O)c(Cl)c2cc3c(cc21)OCO3
inactive: [1] > 100 µM | [3] > 100 µM | [18] > 100 µM | [4] > 100 µM | [5] > 100 µM | [6] > 100 µM | [7] > 100 µM | [8] > 100 µM | [9] > 100 µM | [10] > 100 µM | [11] > 100 µM | [12] > 100 µM | [19] > 100 µM | [20] > 100 µM | [13] > 100 µM | [14] > 100 µM | [15] > 100 µM | [16] > 100 µM

CN1c2ccccc2SC2C(c3ccccc3)=NOC21 (centres undefined)
inactive: [1] 35.1 µM | [2] 65.6 µM | [3] 28.5 µM | [18] 38.5 µM | [4] 47.8 µM | [5] 65.8 µM | [6] 16 µM | [7] > 10 µM | [8] 23.7 µM | [9] 29.8 µM | [10] 38.5 µM | [12] 24.9 µM | [19] 23.3 µM | [20] 28.4 µM | [13] 64.1 µM | [14] 23.1 µM | [15] > 100 µM | [16] 53.7 µM
